Test results published in patent US8415357B2 (Canbas Co., Ltd., priority 2007, dated 2013).

Test system: Jurkat cells
Assay: Adaptation to G2 cell cycle arrest (G1 increment) in X-ray pre-arrested Jurkat cells, flow cytometry
Type: cell-based, human
Conditions: Homo sapiens, Jurkat, 24 h, Table 1; concentration causing half-maximal increase of % cells in G1 phase (G1 increment); Jurkat pre-arrested by 10 Gy X-ray, 24 hours with compound
Experimental: Phenotype-based screening was used to measure the ability of compounds of the invention to cause adaptation to G2 cell cycle arrest in G2-arrested cells. Adaptation to G2 cell cycle arrest and re-entry into the cell cycle can result in death of the previously G2-arrested cell, or suppression (inhibition) of further proliferation of the previously G2-arrested cell. In a non-limiting embodiment, the ability to cause adaptation to G2 cell cycle arrest was measured by contacting cells in which G2 arrest had been induced by irradiation (e.g., gamma (γ) radiation or X-ray radiation), with compounds of the invention at various concentrations and, for each compound at each concentration, determining the percentage of cells that escaped G2 arrest and re-entered the cell cycle, by determining the percentage of cells in G1 phase. The IC50 value for each compound was calculated as the dosage (usually in μM) that caused half-maximal increase of the percentage of cells in G1 phase (the G1 increment) measured for that compound. Certain invention compounds were initially identified by phenotype-based screening of small molecule libraries for activity against G2-arrested cells as described above.
Jurkat cells (a human T cell lymphoma-derived cell line) were arrested at the G2 phase by X-ray irradiation at 10 Gy, and cultured for 24 hours in 10% fetal calf serum (FCS)/RPMI1640 at 37° C. with 5% CO2/air. (FCS was from Equitech-Bio, Kerrville, Tex., and RPMI1640 was from Sigma-Aldrich, St. Louis, Mo.) Test compounds were added to the medium at the indicated doses, and the cells were cultured under the conditions described above, for an additional 24 hours before harvesting.
Harvested cells were stained with Krishan's buffer (0.1% sodium citrate, 50 μg/ml propidium iodide, 20 μg/ml RNase A, 0.5% Nonidet P-40) and analyzed by flow cytometry (BD Biosciences, Franklin Lakes, N.J.) to identify the cell stage of each cell in the sample. Cells in G1 phase were identified by having […] (2N) DNA content.
The IC50 value for each compound was calculated as the dosage showing half maximal activity to induce the increase of the percentage of cells in G1 phase (the G1 increment). IC50 values were used to measure the activity of compounds and to determine structure-activity relationships.
Pre-arrested Jurkat cells were prepared as described in Example 1. Briefly, Jurkat cells were subjected to X-ray irradiation at a dose of 10 Gy, and cultured for 24 hours in 10% fetal calf serum (FCS)/RPMI1640 at 37° C. with 5% CO2/air, after which time cells were exposed to various concentrations of test compounds, and cultured under the conditions described above for an additional 24 hours before harvesting. Harvested cells were stained with Krishan's buffer (0.1% sodium citrate, 50 μg/ml propidium iodide, 20 μg/ml RNase A, 0.5% Nonidet P-40) and analyzed by flow cytometry (BD Biosciences, Franklin Lakes, N.J.) to identify the cell stage of each cell in the sample. Cells in G1 phase were identified by having […] (2N) DNA content.
The IC50 value for each compound was calculated as the dosage (concentration in μM) that caused half-maximal increase of the percentage of cells in G1 phase (the G1 increment) measured for that test compound. Table 1 below presents the structure, mass, 1H NMR values, and […] values for representative compounds.
The IC50 value for each compound was calculated as the dosage (concentration in μM) that caused half-maximal increase of the percentage of cells in G1 phase (the G1 increment) measured for that test compound. Table 2 below presents structures, IUPAC name, molecular formula, ID number (“SCID”), mass, 1H NMR values, and IC50 values for representative compounds. Table 3 presents structures, IUPAC name, molecular formula, ID number (“SCID”), mass, 1H NMR values, and IC50 values for further representative compounds.

| IC50 | Compound |
| --- | --- |
| 10000 nM | CC1=C(C)C(=O)N(Cc2ccc(C(F)(F)F)c(F)c2)C1=O [Compound S00412] |
| 60000 nM | CC1=C(C)C(=O)N(Oc2ccc(C)cc2)C1=O [Compound S00628] |
| 10000 nM | CC1=C(c2ccccc2)C(=O)N(Nc2ccc(C(F)(F)F)c(Cl)n2)C1=O [Compound S00257] |
| 10000 nM | CC1=C(C)C(=O)N(Nc2cc(C(C)(C)C)ccc2Br)C1=O [Compound S00649] |
| 20000 nM | CC1=C(C)C(=O)N(Nc2ccc(-c3ccccc3)cc2)C1=O [Compound S00515] |
| 1250 nM | CC1=C(C)C(=O)N(Nc2ccc(Br)c(C(F)(F)F)c2)C1=O [Compound S00516, 1-{[4-bromo-3-(trifluoromethyl)phenyl]amino}-3,4-dimethylazoline-2,5-dione] |
| 2500 nM | CC1=C(C)C(=O)N(Nc2cc(Cl)cc(Cl)c2)C1=O [Compound S00456] |
| 120 nM | CC1=C(C)C(=O)N(N(C)c2ccc(C(F)(F)F)c(Cl)n2)C1=O [Compound S00170] |
| 20000 nM | CC1=C(C)C(=O)N(Nc2nc(Cl)ccc2C(F)(F)F)C1=O [Compound S00108] |

Same assay, conditions: Homo sapiens, Jurkat, 24 h, Table 2; concentration causing half-maximal increase of % cells in G1 phase (G1 increment); Jurkat pre-arrested by 10 Gy X-ray, 24 hours with compound

| Compound | IC50 |
| --- | --- |
| CC1=C(C)C(=O)N(Nc2cc(Cl)c3cccc(Br)c3n2)C1=O [Compound S01247, 1-[(8-bromo-4-chloro(2-quinolyl))amino]-3,4-dimethylazoline-2,5-dione] | 78 nM |
| CC1=C(C)C(=O)N(Nc2cc(CO)c3ccc(Br)cc3n2)C1=O [Compound S01037, 1-{[7-bromo-4-(hydroxymethyl)(2-quinolyl)]amino}-3,4-dimethylazoline-2,5-dione] | 625 nM |
| CC1=C(C)C(=O)N(Nc2cc(C(F)(F)F)c3ccc(Cl)c(Cl)c3n2)C1=O [Compound S01455, 1-{[7,8-dichloro-4-(trifluoromethyl)(2-quinolyl)]amino}-3,4-dimethylazoline-2,5-dione] | 156 nM |
| CC1=C(C)C(=O)N(Nc2ccc(C(F)(F)F)c(-c3ccc(C)cc3)n2)C1=O [Compound S01393, 3,4-dimethyl-1-{[6-(4-methylphenyl)-5-(trifluoromethyl)(2-pyridyl)]amino}azoline-2,5-dione] | 625 nM |
| CC1=C(CCC(C)C)C(=O)N(Nc2ccc(C(F)(F)F)c(Cl)n2)C1=O [Compound S01554, 1-{[6-chloro-5-(trifluoromethyl)(2-pyridyl)]amino}-4-methyl-3-(3-methylbutyl)azoline-2,5-dione] | 120 nM |
| CC1=C(C)C(=O)N(Nc2ccc(C(F)(F)F)c(Br)n2)C1=O [Compound S00994, 1-{[6-bromo-5-(trifluoromethyl)(2-pyridyl)]amino}-3,4-dimethylazoline-2,5-dione] | 200 nM |
| CC1=C(CO)C(=O)N(Nc2ccc(C(F)(F)F)c(Cl)n2)C1=O [Compound S01470, 1-{[6-chloro-5-(trifluoromethyl)(2-pyridyl)]amino}-3-(hydroxymethyl)-4-methylazoline-2,5-dione] | 200 nM |
| CC1=C(C)C(=O)N(Nc2nc(Cl)cc3ccccc23)C1=O [Compound S01098, 1-[(3-chloroisoquinolyl)amino]-3,4-dimethylazoline-2,5-dione] | 450 nM |
| CC1=C(C)C(=O)N(Nc2cc(C(F)(F)F)c3ccccc3n2)C1=O [Compound S00873, 3,4-dimethyl-1-{[4-(trifluoromethyl)(2-quinolyl)]amino}azoline-2,5-dione] | 300 nM |
| COc1ccc(-c2cc(NN3C(=O)C(C)=C(C)C3=O)nc3c(Cl)cccc23)cc1 [Compound S01191, 1-{[8-chloro-4-(4-methoxyphenyl)(2-quinolyl)]amino}-3,4-dimethylazoline-2,5-dione] | 625 nM |
| CC(=O)OCc1cc(NN2C(=O)C(C)=C(C)C2=O)nc2cc(Br)ccc12 [Compound S01047, {2-[(3,4-dimethyl-2,5-dioxoazolinyl)amino]-7-bromo-4-quinolyl}methylacetate] | 625 nM |
| CC1=C(C)C(=O)N(Nc2ccc(Br)c(C(F)(F)F)c2)C1=O [Compound S00516, 1-{[4-bromo-3-(trifluoromethyl)phenyl]amino}-3,4-dimethylazoline-2,5-dione] | 625 nM |
| CC1=C(C)C(=O)N(N(C)c2ccc(C(F)(F)F)c(Cl)n2)C1=O [Compound S00170] | 120 nM |

Second part, the molecule after the results:

| IC50 | Compound |
| --- | --- |
| 625 nM | CC1=C(C)C(=O)N(Nc2ccc(C(F)(F)F)c(Cc3ccccc3)n2)C1=O [Compound S01762, 3,4-dimethyl-1-{[6-benzyl-5-(trifluoromethyl)(2-pyridyl)]amino}azoline-2,5-dione] |
| 156 nM | COc1cccc(C(=O)N2CCN(Cc3cc(NN4C(=O)C(C)=C(C)C4=O)nc4cc(Br)ccc34)CC2)c1 [Compound S01925, 1-{[7-bromo-4-({4-[(3-methoxyphenyl)carbonyl]piperazinyl}methyl) (2-quinolyl)]amino}-3,4-dimethylazoline-2,5-dione] |
| 234 nM | CNC(=O)CCC1=C(C)C(=O)N(Nc2ccc(C(F)(F)F)c(Cl)n2)C1=O [Compound S01883, 3-(1-{[6-chloro-5-(trifluoromethyl)(2-pyridyl)]amino}-4-methyl-2,5-dioxoazolin-3-yl)-N-methylpropanamide] |
| 78 nM | COC(=O)CCC1=C(C)C(=O)N(Nc2ccc(C(F)(F)F)c(Cl)n2)C1=O [Compound S01648, Methyl 3-(1-{[6-chloro-5-(trifluoromethyl)(2-pyridyl)]amino}-4-methyl-2,5-dioxoazolin-3-yl)propanoate] |
| 312 nM | CC1=C(C)C(=O)N(Nc2cc(C(F)(F)F)cc(Cl)n2)C1=O [Compound S01737, 1-{[6-chloro-4-(trifluoromethyl)(2-pyridyl)]amino}-3,4-dimethylazoline-2,5-dione] |
| 938 nM | CC1=C(C)C(=O)N(Nc2cc(CN3CCN(C4CCN(C(=O)OC(C)(C)C)CC4)CC3)c3ccc(Br)cc3n2)C1=O [Compound S01928, tert-butyl 4-[4-({2-[(3,4-dimethyl-2,5-dioxoazolinyl)amino]-7-bromo-4-quinolyl}methyl)piperazinyl]piperidinecarboxylate] |
| 156 nM | CC1=C(CCC(=O)NC(C)(C)C)C(=O)N(Nc2ccc(C(F)(F)F)c(Cl)n2)C1=O [Compound S01758, N-(tert-butyl)-3-(1-{[6-chloro-5-(trifluoromethyl)(2-pyridyl)]amino}-4-methyl-2,5-dioxoazolin-3-yl)propanamide] |
| 625 nM | CC1=C(C)C(=O)N(Nc2cc(CN3CCN(C(=O)c4ccccc4)CC3)c3ccc(Br)cc3n2)C1=O [Compound S01699, 1-[(7-bromo-4-{[4-(phenylcarbonyl)piperazinyl]methyl}(2-quinolyl))amino]-3,4-dimethylazoline-2,5-dione] |
| 625 nM | COCC1=C(C)C(=O)N(N(C)c2ccc(C(F)(F)F)c(Cl)n2)C1=O [Compound S01600, 1-{[6-chloro-5-(trifluoromethyl)(2-pyridyl)]methylamino}-3-(methoxymethyl)-4-methylazoline-2,5-dione] |

Same assay, conditions: Homo sapiens, Jurkat, 24 h, Table 3; concentration causing half-maximal increase of % cells in G1 phase (G1 increment); Jurkat pre-arrested by 10 Gy X-ray, 24 hours with compound

| IC50 | Compound |
| --- | --- |
| 60 nM | CCCC(O)CCC1=C(C)C(=O)N(Nc2ccc(C(F)(F)F)c(Cl)n2)C1=O (stereo not shown) [Compound S03552, 1-{[6-chloro-5-(trifluoromethyl)(2-pyridyl)]amino}-4-(3-hydroxyhexyl)-3-methylazoline-2,5-dione] |
| 40 nM | CCOCC1=C(C)C(=O)N(Nc2ccc(C(F)(F)F)c(Cl)n2)C1=O [Compound S02366, 1-{[6-chloro-5-(trifluoromethyl) (2-pyridyl)]amino}-3-(ethoxymethyl)-4-methylazoline-2,5-dione] |

| Compound | IC50 |
| --- | --- |
| CC1=C(COC(C)CC(C)C)C(=O)N(Nc2ccc(C(F)(F)F)c(Cl)n2)C1=O (stereo not shown) [Compound S03964, 4-[(1,3-dimethylbutoxy)methyl]-1-{[6-chloro-5-(trifluoromethyl) (2-pyridyl)]amino}-3-methylazoline-2,5-dione] | 40 nM |
